We go through two molecules from publication PMC11157767 (Molecular Cancer, 2024).

Each structure is given as a SMILES string. Read-outs that look alike come from different tables or passages of the source.

Data set [1] in a line: In vitro protein binding assay, culture media. It is filed as in vitro ADME. Conditions: read-out: unbound drug fraction, Culture Media, AVG.
A further data set deals with TRIM24-MET-i cells. In words: 3-day dose-response assay, TRIM24-MET-i cells. It counts as cell-based. The following applies: Homo sapiens.
The next data set relates to pMET, pErk, pAkt. Kind of data set: Phosphoprotein IHC/western blot in TFG-MET allograft tumors (PD and Survival cohort). It counts as in vivo, mouse. The following applies: for levels of phosphorylated MET, Erk and Akt in initial neoplasms: PD cohort, after second treatment, vs vehicle. A general note: A western blot detects proteins with antibodies after separation by electrophoresis.

A further data set has as its system RAD51. Kind of data set: Western blot of RAD51 in TRIM24-MET or TFG-MET cells, 24 hours. It counts as cell-based, human and mouse.

Experimental for RAD51: Error bars display standard error of mean, statistical significance was determined using t-test analysis. (****;p<0.0001, ***;p<0.001, **;p<0.01, *;p<0.05). […] Each dot represents an individual replicate. Error bars display standard error of the mean. Statistical significance was determined using a One-Way ANOVA followed by Tukey’s multiple comparisons test (*p<0.05, **p<0.01, ***p<0.001, ****p<0.0001). Lysate from lane 10 was excluded due to the different timepoint after RT
Experimental for pMET, pErk, pAkt: Error bars display standard error of the mean. Statistical significance was determined using a One-Way ANOVA followed by Tukey’s multiple comparisons test (*p<0.05, **p<0.01, ***p<0.001, ****p<0.0001)
All treatments started 1 week after transplantation. Radio therapy was administered for 6 days, delivering 12 Gy total. Compound treatment was continued for 84 days. […] N = 8 (vehicle arms) or n = 10 (compound-treated arms), respectively.

Regarding `CNC(=O)c1ccc(-c2cnc3ncc(Cc4ccc5ncccc5c4)n3n2)cc1F` [Capmatinib], the free fraction (fraction unbound) in data set [1] was found to be 0.705. The EC90 was found to be 5.93 nM with TRIM24-MET-i cells (72 h, TRIM24-MET-i, 3-day dose response, read-out: EC90 Total) and 4.18 nM in the data set with TRIM24-MET-i cells (TRIM24-MET-i, total value multiplied with unbound fraction in culture media, read-out: EC90 Unbound). The “levels of phosphorylated MET, Erk and Akt in initial neoplasms” value in the data set with pMET, pErk, pAkt was “greatly reduced levels”. Moreover, in the data set with pMET, pErk, pAkt (Survival cohort, sacrificed under treatment), the “animals with pMET and pErk reduced to background levels” value is on record as 4/6. Also, the RAD51 protein level result in the data set on RAD51 is recorded as “downregulation”.
Consider `C[C@@H](Oc1cc(-c2cnn(C3CCNCC3)c2)cnc1N)c1c(Cl)ccc(F)c1Cl` [Crizotinib], for which the fraction unbound in data set [1] was 0.617. Further, the EC50 in the data set on TRIM24-MET-i cells (72 h, read-out: EC50 Total) was 18.1 nM; with TRIM24-MET-i cells (read-out: EC50 Unbound), 11.1 nM. The 90% effect concentration (EC90) came out at 322 nM with TRIM24-MET-i cells (72 h, read-out: EC90 Total) and 198 nM in the data set on TRIM24-MET-i cells (read-out: EC90 Unbound). The “levels of phosphorylated MET, Erk and Akt in initial neoplasms” value with pMET, pErk, pAkt was “less complete reduction”. Also, the RAD51 protein level entry in the data set with RAD51 is given as “downregulation”.

A word on the fraction unbound: it is the share of the substance not bound to proteins or other matrix. As usually defined, the EC90 is the point of the concentration-response curve where the effect stands at 90%. As a reminder, the EC50 is the concentration needed to bring the measured effect to its halfway point.
